Patent US8426447B2, “Spiro-tricyclic ring compounds as beta-secretase modulators and methods of use” (Amgen Inc., priority 2008, dated 2013)

Legend:
BACE1 [1] = biological target: T1, BACE1 (Homo sapiens, UniProt P56817); test: In Vitro BACE Cell-based Assay (HEK cell assay): Aβ40 in conditioned medium of cells stably expressing Amyloid Precursor Protein, sandwich ELISA; conditions: Table III; IC50's in uM ranges; read-out: HEK cell assay
Protocol: In Vitro BACE Cell-based Assay
The cell-based assay measures inhibition or reduction of Aβ40 in conditioned medium of test compound treated cells expressing amyloid precursor protein.
Cells stably expressing Amyloid Precursor Protein (APP) were plated at a density of 40K cells/well in 96 well plates (Costar). The cells were cultivated for 24 hours at 37° C. and 5% CO2 in DMEM supplemented with 10% FBS. The test compounds were then added to cells in 10-point dose response concentrations with the starting concentration being either 100 μM or 10 μM. The compounds were diluted from stock solutions in DMSO and the final DMSO concentration of the test compounds on cells was 0.1%. After 24 h of incubation with the test compounds the supernatant conditioned media was collected and the Aβ 40 levels were determined using a sandwich ELISA. The IC50 of the compound was calculated from the percent of control or percent inhibition of Aβ 40 as a function of the concentration of the test compound.
The sandwich ELISA to detect Aβ 40 was performed in 96 well microtiter plates, which were pre-treated with goat anti-rabbit IgG (Pierce). The capture and detecting antibody pair that were used to detect Aβ 40 from cell supernatants were affinity purified pAb40 (Biosource) and biotinylated 6E10 (Signet Labs Inc.), respectively. The optimal concentration for the pAb40 antibody was 3 μg/ml in Superblock/TBS (Pierce) that was supplemented with 0.05% Tween 20 (Sigma).
Cellular supernatants were incubated with the capture antibody for 3 h at 4° C., followed by 3 wash steps in TBS-tween (0.05%). The detecting antibody incubation was for 2 h at 4° C., again followed by the wash steps as described previously. The final readout of the ELISA is Time-Resolved Fluorescence (counts per minute) using Delfia reagents Streptavidin-Europium and Enhancement solutions (Perkin Elmer) and the Victor 2 multilabel counter (Perkin Elmer).

BACE1 [2] = biological target: T1, BACE1; test: In Vitro Enzymatic BACE FRET (Fluorescence Resonance Energy Transfer) Assay; assay type: biochemical; conditions: read-out: BACE1 FRET assay
Protocol: In Vitro Enzymatic BACE FRET (Fluorescence Resonance Energy Transfer) Assay (Enzyme Assay Data in the Example Tables I, II, III & IV) The assay buffer used in this screen is 0.05 M acetate, pH 4.2, 10% DMSO final, 100 uM genapol (which is a nonionic detergent, below its Critical Micelle Concentration). […] This assay is effectively started by the addition of FRET substrate (50 nM) and the combination is incubated for one hour. The FRET assay is terminated with by addition of Tris buffer, which raises the pH to neutrality, and the fluorescence is determined. The FRET substrate is a peptide with commercially available fluorophore and quencher, on opposite sides of the BACE cleavage site. […]

[3] = in vitro BACE FRET enzyme assay, IC50 class symbols

T1 sequence (P56817 46-501, species assumed): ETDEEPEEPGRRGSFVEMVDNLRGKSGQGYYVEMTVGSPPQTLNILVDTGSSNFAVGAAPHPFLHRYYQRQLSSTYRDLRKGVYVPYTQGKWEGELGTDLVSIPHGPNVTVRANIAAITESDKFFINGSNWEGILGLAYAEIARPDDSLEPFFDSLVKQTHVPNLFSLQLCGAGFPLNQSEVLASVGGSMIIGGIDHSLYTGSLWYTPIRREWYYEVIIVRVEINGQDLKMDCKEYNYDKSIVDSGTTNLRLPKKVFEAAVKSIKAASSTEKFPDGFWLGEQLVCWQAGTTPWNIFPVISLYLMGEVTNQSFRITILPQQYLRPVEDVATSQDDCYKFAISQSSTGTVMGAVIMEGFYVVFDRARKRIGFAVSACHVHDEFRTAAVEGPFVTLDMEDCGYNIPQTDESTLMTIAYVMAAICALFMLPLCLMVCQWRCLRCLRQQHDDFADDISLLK

| Structure (SMILES) | IC50 (BACE1 [1]) [µM] | IC50 (BACE1 [2]; Table III, IC50's in uM ranges) [µM] | IC50 (BACE1 [2]; Table II) [µM] | IC50 (BACE1 [2]; [3]) [µM] |
| --- | --- | --- | --- | --- |
| COC(C)(C)CCc1ccc2c(c1)C1(COC(N)=N1)c1cc(-c3cccnc3)cnc1O2 (racemic) [Example 110, rac-7-(3-methoxy-3-methylbutyl)-3-(3-pyridinyl)spiro[chromeno[2,3-b]pyridine-5,4′-[1,3]oxazol]-2′-amine] | 0.1 to 1 | < 0.1 |  |  |
| NC1=N[C@]2(CO1)c1cc(OCC3CCCCO3)ccc1Oc1ccc(-c3cncnc3)cc12 (stereo partly drawn) [Example 107, (4S)-2′-(5-pyrimidinyl)-7′-(tetrahydro-2H-pyran-2-ylmethoxy)spiro[1,3-oxazole-4,9′-xanthen]-2-amine] |  |  | < 0.1 |  |
| NC1=N[C@@]2(CO1)c1cc(-c3cncc(Cl)c3)ccc1Oc1cnc(-c3ccncc3)cc12 [compound 302] |  |  |  | < 0.1 |
| NC1=N[C@@]2(CO1)c1cc(-c3cncc(Cl)c3)ccc1Oc1cnc(-c3cccnc3)cc12 [compound 303] |  |  |  | < 0.1 |
| COc1ccc2c(c1)[C@@]1(COC(N)=N1)c1cc(N3CCOCC3)cc(F)c1O2 [compound 304] |  |  |  | 0.1 to 1 |
| Cc1cncc(-c2ccc3c(c2)[C@@]2(COC(N)=N2)c2cc(-c4ccncc4)ncc2O3)c1 [compound 305] |  |  |  | < 0.1 |
| Cc1cncc(-c2ccc3c(c2)[C@@]2(COC(N)=N2)c2cc(-c4cccnc4)ncc2O3)c1 [compound 306] |  |  |  | < 0.1 |
| Cc1cncc(-c2ccc3c(c2)[C@@]2(COC(N)=N2)c2cc(-c4ccnc(C)c4)ncc2O3)c1 [compound 307] |  |  |  | < 0.1 |
| Cc1cncc(-c2ccc3c(c2)[C@@]2(COC(N)=N2)c2cc(C4CCOCC4)ncc2O3)c1 [compound 308] |  |  |  | < 0.1 |
| NC1=N[C@@]2(CO1)c1cc(-c3cncc(Cl)c3)ccc1Oc1cnc(C3=CCOCC3)cc12 [compound 309] |  |  |  | < 0.1 |
| NC1=N[C@@]2(CO1)c1cc(-c3ccc(F)nc3)ccc1Oc1cnc(Cl)cc12 [compound 310] |  |  |  | 0.1 to 1 |
| NC1=N[C@@]2(CO1)c1cc(-c3ccc(F)nc3)ccc1Oc1cnc(-c3ccnc(F)c3)cc12 [compound 311] |  |  |  | < 0.1 |
| NC1=N[C@@]2(CO1)c1cc(-c3cccnc3F)ccc1Oc1cnc(-c3ccc(F)nc3)cc12 [compound 312] |  |  |  | < 0.1 |
| Cc1cc(-c2cc3c(cn2)Oc2ccc(-c4ccc(F)nc4)cc2[C@@]32COC(N)=N2)ccn1 [compound 313] |  |  |  | < 0.1 |
| CC1(C#Cc2cnc3c(c2)[C@]2(COC(N)=N2)c2cc(-c4cccc(Cl)c4)ccc2O3)COC1 [compound 314] |  |  |  | < 0.1 |
| CC1(C#Cc2cnc3c(c2)[C@]2(COC(N)=N2)c2cc(-c4cccnc4)ccc2O3)COC1 [compound 315] |  |  |  | < 0.1 |

| Structure (SMILES) | IC50 (BACE1 [1]) [µM] | IC50 (BACE1 [2]; Table III, IC50's in uM ranges) [µM] | IC50 (BACE1 [2]; Table II) [µM] | IC50 (BACE1 [2]; [3]) [µM] |
| --- | --- | --- | --- | --- |
| CC1(C)CCN(c2cnc3c(c2)[C@]2(COC(N)=N2)c2cc(-c4cccnc4F)ccc2O3)C1 [compound 316] |  |  |  | < 0.1 |
| CC(C)(C)C#Cc1cnc2c(c1)[C@]1(COC(N)=N1)c1cc(-c3cncc(C#N)c3)ccc1O2 [compound 317] |  |  |  | < 0.1 |
| CC(C)(C)C#Cc1cnc2c(c1)[C@]1(COC(N)=N1)c1cc(-c3cccc(C#N)c3)ccc1O2 [compound 318] |  |  |  | < 0.1 |
| CC(C)(C)C#Cc1cnc2c(c1)[C@]1(COC(N)=N1)c1cc(OCC(C)(C)C#N)ccc1O2 [compound 319] |  |  |  | < 0.1 |
| CC(C)(C#Cc1cnc2c(c1)[C@]1(COC(N)=N1)c1cc(-c3cccnc3)ccc1O2)N1CCC1 [compound 320] |  |  |  | < 0.1 |
| NC1=N[C@@]2(CO1)c1cc(-c3c(F)ccnc3F)ccc1Oc1ncc(C3=CCOCC3)cc12 [compound 321] |  |  |  | < 0.1 |
| NC1=N[C@@]2(CO1)c1cc(-c3cccc(Cl)c3)ccc1Oc1ncc(C3=CCOCC3)cc12 [compound 322] |  |  |  | < 0.1 |
| CC(C)(C)COc1cnc2c(c1)[C@]1(COC(N)=N1)c1cc(C#CC3(C)COC3)ccc1O2 [compound 323] |  |  |  | < 0.1 |
| Cc1ccc(-c2cnc3c(c2)[C@]2(COC(N)=N2)c2cc(-c4cccnc4F)ccc2O3)cn1 [compound 339] |  |  |  | < 0.1 |
| CC(C)(C#N)COc1ccc2c(c1)[C@@]1(COC(N)=N1)c1cc(-c3ccc(C#N)cc3)cnc1O2 [compound 340] |  |  |  | < 0.1 |
| COc1ccc(-c2cnc3c(c2)[C@]2(COC(N)=N2)c2cc(OCC(C)(C)C#N)ccc2O3)cn1 [compound 341] |  |  |  | < 0.1 |
| CC(C)(C#N)COc1ccc2c(c1)[C@@]1(COC(N)=N1)c1cc(-c3ccc(OC(F)(F)F)cc3)cnc1O2 [compound 342] |  |  |  | < 0.1 |
| COc1ccc(-c2cnc3c(c2)[C@]2(COC(N)=N2)c2cc(-c4cccnc4F)ccc2O3)cn1 [compound 344] |  |  |  | < 0.1 |
| NC1=N[C@@]2(CO1)c1cc(-c3cccc(Cl)c3)ccc1Oc1ncc(-c3ccncc3)cc12 [compound 345] |  |  |  | < 0.1 |
| Cn1cc(-c2cnc3c(c2)[C@]2(COC(N)=N2)c2cc(-c4cccnc4F)ccc2O3)cn1 [compound 346] |  |  |  | < 0.1 |

The next lines start with the values.

| IC50 (BACE1 [1]) [µM] | IC50 (BACE1 [2]; Table III, IC50's in uM ranges) [µM] | IC50 (BACE1 [2]; Table II) [µM] | IC50 (BACE1 [2]; [3]) [µM] | Structure (SMILES) |
| --- | --- | --- | --- | --- |
| > 5 | > 5 |  |  | COc1ccc2c(c1)[C@]1(N=C(N)O[C@H]1C)c1cc(-c3cncnc3)ccc1O2 (single isomer, unassigned) [Example 125a] |
| 0.1 to 1 | 0.1 to 1 |  |  | COc1ccc2c(c1)[C@@]1(N=C(N)O[C@H]1C)c1cc(-c3cncnc3)ccc1O2 (single isomer, unassigned) [Example 125b] |
| > 5 | > 5 |  |  | COc1ccc2c(c1)[C@]1(N=C(N)O[C@@H]1C)c1cc(-c3cncnc3)ccc1O2 (single isomer, unassigned) [Example 125c] |
| 0.1 to 1 | 0.1 to 1 |  |  | COc1ccc2c(c1)[C@@]1(N=C(N)O[C@@H]1C)c1cc(-c3cncnc3)ccc1O2 (single isomer, unassigned) [Example 125d] |
| 0.1 to 1 | < 0.1 |  |  | CC(C)(C)C[C@H](F)c1ccc2c(c1)[C@]1(COC(N)=N1)c1cc(-c3cncnc3)ccc1O2 [116a, (4S)-2′-((1S)-1-fluoro-3,3-dimethylbutyl)-7′-(5-pyrimidinyl)spiro[1,3-oxazole-4,9′-xanthen]-2-amine] |
| 0.1 to 1 | < 0.1 |  |  | CC(C)(C)C[C@@H](F)c1ccc2c(c1)[C@]1(COC(N)=N1)c1cc(-c3cncnc3)ccc1O2 [116b, (4S)-2′-((1R)-1-fluoro-3,3-dimethylbutyl)-7′-(5-pyrimidinyl)spiro[1,3-oxazole-4,9′-xanthen]-2-amine] |
| 0.1 to 1 | 1 to 5 |  |  | CN(C)CC#Cc1ccc2c(c1)[C@@]1(COC(N)=N1)c1cc(-c3cncnc3)ccc1O2 [117b] |
| 1 to 5 | 0.1 to 1 |  |  | C[C@@H]1OC(N)=N[C@]12c1cc(OCC(C)(C)C)ccc1Oc1ccc(-c3cncnc3)cc12 [126a, (4R,5S)-2′-(2,2-dimethylpropoxy)-5-methyl-7′-(5-pyrimidinyl)spiro[1,3-oxazole-4,9′-xanthen]-2-amine] |
| 0.1 to 1 | < 0.1 |  |  | C[C@@H]1OC(N)=N[C@@]12c1cc(OCC(C)(C)C)ccc1Oc1ccc(-c3cncnc3)cc12 [126b] |
| 1 to 5 | 0.1 to 1 |  |  | C[C@H]1OC(N)=N[C@]12c1cc(OCC(C)(C)C)ccc1Oc1ccc(-c3cncnc3)cc12 [126c] |
| < 0.1 | < 0.1 |  |  | C[C@H]1OC(N)=N[C@@]12c1cc(OCC(C)(C)C)ccc1Oc1ccc(-c3cncnc3)cc12 [126d] |
| 0.1 to 1 | < 0.1 |  |  | CC(C)(C)C#Cc1ccc2c(c1)[C@]1(COC(N)=N1)c1cc(-c3ccc(F)nc3)ccc1O2 [147a] |
| 0.1 to 1 | < 0.1 |  |  | CC(C)(C)C#Cc1ccc2c(c1)[C@@]1(COC(N)=N1)c1cc(-c3ccc(F)nc3)ccc1O2 [147b] |
| 0.1 to 1 | < 0.1 |  |  | CC(C)(C)CC(=O)c1ccc2c(c1)[C@]1(COC(N)=N1)c1cc(-c3ccc(F)nc3)ccc1O2 [150a] |
| 0.1 to 1 | < 0.1 |  |  | CC(C)(C)CC(=O)c1ccc2c(c1)[C@@]1(COC(N)=N1)c1cc(-c3ccc(F)nc3)ccc1O2 [150b] |
| < 0.1 | < 0.1 |  |  | CC(C)(O)C#Cc1ccc2c(c1)[C@]1(COC(N)=N1)c1cc(-c3cccnc3)ccc1O2 [151a] |
| < 0.1 | < 0.1 |  |  | CC(C)(O)C#Cc1ccc2c(c1)[C@@]1(COC(N)=N1)c1cc(-c3cccnc3)ccc1O2 [151b] |
| 1 to 5 | 0.1 to 1 |  |  | COc1ccc2c(c1)[C@]1(COC(N)=N1)c1cc(-c3cncnc3)cc(F)c1O2 [152a] |
| 1 to 5 | 1 to 5 |  |  | COc1ccc2c(c1)[C@@]1(COC(N)=N1)c1cc(-c3cncnc3)cc(F)c1O2 [152b] |
